Test results reported in PubChem BioAssay (NCI).
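Where inhibition never reached the appropriate level, the endpoint shown equals the highest concentration tested. Otherwise, values were interpolated linearly from a five-concentration, 48-hour dose response in 96-well plates. GI50 is the concentration that inhibits growth by half. At the TGI there is no net growth.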

Legend:
Assay in all cases: inhibition of tumour cell growth, NCI panel, 48 h
CCRF-CEM leukemia = tested on: CCRF-CEM leukemia
786-0 renal = tested on: 786-0 renal
BT-549 breast = tested on: BT-549 breast
OVCAR-3 ovarian = tested on: OVCAR-3 ovarian
MDA-MB-435 = tested on: MDA-MB-435
SNB-19 CNS = tested on: SNB-19 CNS
SR leukemia = tested on: SR leukemia
LOX IMVI melanoma = tested on: LOX IMVI melanoma
SK-OV-3 ovarian = tested on: SK-OV-3 ovarian
SF-539 CNS = tested on: SF-539 CNS

SMILES | TGI (CCRF-CEM leukemia) [µM] | TGI (786-0 renal) [µM] | TGI (BT-549 breast) [µM] | TGI (OVCAR-3 ovarian) [µM] | TGI (MDA-MB-435) [µM] | TGI (SNB-19 CNS) [µM] | TGI (SR leukemia) [µM] | TGI (LOX IMVI melanoma) [µM] | TGI (SK-OV-3 ovarian) [µM] | TGI (SF-539 CNS) [µM] | GI50 (SF-539 CNS) [µM] | GI50 (OVCAR-3 ovarian) [µM]
O=[N+]([O-])c1cc(-c2ccc([As](=O)(O)O)cc2)ccc1[As](=O)(O)O | > 100 | > 100 | > 100 | > 100 | > 100 | > 100 | > 100 | > 100 |  |  |  | 
CCOC1=C2N=C(C(CC)c3ccc(F)cc3)N=C2C(=O)c2ccccc21 (stereo not drawn) | > 100 | > 100 |  | > 91.1 |  | > 100 | 89.2 | 29.7 | > 100 | 21.6 |  | 
CCN1CC2(CO)CCC(OC)C34C5CC6C(OC)CC(O)(C5C6OC)C(O)(C(OC)C23)C14 (stereo not drawn) | > 375 |  |  | > 174 |  | > 375 |  | > 375 | > 375 | > 375 |  | 
Nc1nc2c(nnn2C2C=C(CO)C(O)C2O)c(=O)[nH]1 (stereo not drawn) | > 100 | > 100 |  | > 100 |  | > 100 | > 100 | > 100 | > 100 | > 100 |  | 
CC(C)c1cccc(C(C)C)c1NC(=O)/C(Cc1nc2ccc(Cl)cc2[nH]c1=O)=N\NC(=O)C[N+](C)(C)C | > 100 | > 100 |  | > 100 |  | > 100 | > 100 |  | > 100 | > 100 |  | 
O=C(C#Cc1ccccc1)Nc1ccccc1CC(c1c[nH]c2ccccc12)c1c[nH]c2ccccc12 | 20 | 29.4 |  | 29.2 |  | > 100 |  | 43.6 | > 100 | 30.1 |  | 
CN(C)CCNC(=O)c1cccc2c(NC(CCCN=C(N)N)C(=O)O)c3ccccc3nc12 (stereo not drawn) | > 100 | > 100 |  | > 100 | 41.6 | 47 | > 100 | > 100 | > 100 |  |  | 
C=C1C(=O)OC2C=C(C)CC3C=C(CCC=C(C)CCC12)C(=O)O3 (stereo not drawn) | 104 |  |  | 116 |  | 271 |  | 95.1 | 280 | 199 |  | 
OC[C@@H](O)[C@H](O)[C@H](O)[C@@H](O)C1SCCCS1 |  | > 100 | > 100 | > 100 | > 100 | > 100 | > 100 |  | > 100 | > 100 |  | 
Nc1ccc(Oc2ccc(C34CC5CC(C3)CC(c3ccc(Oc6ccc(N)c(O)c6)cc3)(C5)C4)cc2)cc1O |  | > 46 | 3.37 | 5.05 |  | 7.5 | > 100 | 3.11 | 8.57 | 4.57 |  | 
CSCCC(NOC(=O)Cc1ccccc1)P(=O)(O)c1ccccc1 (stereo not drawn) | > 100 |  |  | > 100 | > 100 | > 100 | > 100 | > 100 | > 100 |  |  | 
O=C1C2=C(c3ccccc31)C(c1ccc([N+](=O)[O-])cc1)NC(=S)N2 (stereo not drawn) | > 100 | > 100 |  | > 100 |  | > 100 |  |  | > 100 | > 100 |  | 
CC(C)C(N=C1CC2CCC1(C(=O)Nc1ccccc1O)C2(C)C)c1ccccc1 (stereo not drawn) | > 10 | > 10 |  | > 10 |  | > 10 | > 10 | > 10 | > 10 | > 10 |  | 
C#CCn1c(=O)c2cc(OC)c(OC)cc2n(CC#C)c1=O | > 10 | > 10 |  | > 10 | > 10 | > 10 |  | > 10 | > 10 | > 10 |  | 
COc1c(C(=O)CC2c3c(cc4oc(C)cc(=O)c4c3OC)OC(=N)C2c2nc3ccccc3[nH]2)c(O)c(OC)c2occc12 (stereo not drawn) | > 100 | > 100 | > 100 | > 100 | > 100 | > 100 |  | > 100 | > 100 |  |  | 
Nc1nc(Cl)cc(OCC2(CO)CCCCC2)n1 | > 100 | > 100 |  | > 100 | > 100 | > 100 | > 100 | > 100 |  | > 100 |  | 
CCCC(CCC(=O)O)(CCC(=O)O)[N+](=O)[O-] |  | > 100 | > 100 |  | > 100 | > 100 | > 100 |  | > 100 | > 100 |  | 
Cc1[nH]c(-c2ccccc2)c(O)c1C(=O)OC1CC(C)CCC1C(C)C (stereo not drawn) | 31 | 28.6 | 33 | 25.2 | 28 | 31.1 | 34.7 |  | 29.1 | 29.7 |  | 
O=C(Cn1cc(I)c(C(=O)NCC(O)CO)n1)NCC(O)CO (stereo not drawn) | > 100 | > 100 |  | > 100 |  | > 100 |  | > 100 | > 100 | > 100 |  | 
CCc1cc2c(cc1O)CC[C@@H]1[C@@H]2CC[C@]2(C)[C@@H](O)CC[C@@H]12 | 15 | 17.8 |  | 11.5 | 4.99 | 19 | 10.9 | 26.6 | 39.6 | 9.5 | 3.27 | 2.94
COc1ccc(/C=N/NC(=O)NCCNCCO)cc1 | > 100 | > 100 |  | > 100 |  |  | > 100 | > 100 | > 100 | > 100 |  | 
CC(=O)Nc1ccc(S(=O)(=O)Nc2cnc3ccccc3n2)cc1 | > 100 | > 100 |  | > 100 |  | > 100 | > 100 | > 100 | > 100 | > 100 |  | 
C#CCN(Cc1ccc2nc(-c3ccccc3)c(Cl)nc2c1)c1ccc(Cl)c(Cl)c1 | > 100 | > 100 |  | > 100 |  | > 100 | > 100 | > 100 | > 100 | > 100 |  | 
Nc1ccc2ncc(NCc3ccc(F)cc3)nc2c1 | > 100 | > 100 |  | > 100 |  | > 100 | > 100 | > 100 | > 100 | > 100 |  | 
COC(=O)C1=C(C(=O)OC)SC2(S1)C(C(=O)OC)=C(C(=O)OC)Sc1c2ssc1=O | 0.307 | 1.21 | 2.89 | 2.38 | 4.36 | 34.2 |  | 0.817 | 24.8 | 3.35 |  | 
